Experimental data reported in ChEMBL document CHEMBL4004890, “RITA Mimics: Synthesis and Mechanistic Evaluation of Asymmetric Linked Trithiazoles” (2017).
Values belong to the compound of their own block, whether it stands above or below them. The source made the active and inactive calls. The calls are words filed in the database; no cut-off is given here.

Tests used:
HCT-116 [1] = assay: Growth inhibition of human HCT116 cells at 10 uM after 24 hrs by CCK8 assay relative to control; assay type: functional
K562 = assay: Antiproliferative activity against human K562 cells; assay type: functional
CCRF-CEM = assay: Antiproliferative activity against human CCRF-CEM cells; assay type: functional
HCT-116 [2] = assay: Induction of apoptosis in human HCT116 cells at 10 uM after 24 hrs by Annexin-V-FITC/7AAD staining based flow cytometry; assay type: functional, cell-based
HCT-116 [3] = assay: Down regulation of c-Myc expression in human HCT116 cells at 1 uM after 12 to 24 hrs by chemiluminescent immunoblotting; assay type: functional, cell-based
HCT-116 [4] = assay: Down regulation of c-Myc expression in human HCT116 cells at 1 uM after 6 hrs by chemiluminescent immunoblotting; assay type: functional, cell-based
HCT-116 [5] = assay: Down regulation of c-Myc expression in human HCT116 cells at 10 uM after 6 to 24 hrs by chemiluminescent immunoblotting; assay type: functional, cell-based
HCT-116 [6] = assay: Antiproliferative activity against human HCT116 cells; assay type: functional
HCT-116 [7] = assay: Growth inhibition of human HCT116 cells after 24 hrs by CCK8 assay; assay type: functional; conditions: HCT-116, 24 h
HCT-116 [8] = assay: Upregulation of p53 expression in human HCT116 cells at 1 uM at 6 hrs post dose by chemiluminescent immunoblotting; assay type: functional, cell-based
HCT-116 [9] = assay: Down regulation of Mcl-1 expression in human HCT116 cells at 1 to 10 uM after 6 to 24 hrs by chemiluminescent immunoblotting; assay type: functional, cell-based
HCT-116 [10] = assay: Upregulation of p53 expression in human HCT116 cells at 10 uM at 12 hrs post dose by chemiluminescent immunoblotting; assay type: functional, cell-based
HCT-116 [11] = assay: Induction of apoptosis in human HCT116 cells at 1 uM after 24 hrs by Annexin-V-FITC/7AAD staining based flow cytometry; assay type: functional, cell-based

SMILES: CCOC(=O)c1csc(-c2csc(-c3csc([C@@H]4Cc5ccccc5CN4C(=O)OC(C)(C)C)n3)n2)n1
- growth inhibition (GI) (HCT-116 [1]): inactive

- GI50 (K562): < 1 nM
SMILES: Cc1nc(Nc2ncc(C(=O)Nc3c(C)cccc3Cl)s2)cc(N2CCN(CCO)CC2)n1 [DASATINIB]

SMILES: CC(C)(C)OC(=O)N[C@@H](Cc1ccccc1)c1nc(-c2nc(-c3nc(C(N)=O)cs3)cs2)cs1
- growth inhibition (GI) (HCT-116 [1]): inactive

SMILES: CCOC(=O)c1csc(-c2csc(-c3csc([C@@H](N)Cc4ccccc4)n3)n2)n1
- growth inhibition (GI) (HCT-116 [1]): inactive

SMILES: CCOC(=O)c1csc(-c2csc(-c3csc([C@H](Cc4ccccc4)NC(=O)OC(C)(C)C)n3)n2)n1
- growth inhibition (GI) (HCT-116 [1]): inactive

- GI50 (CCRF-CEM): 250 nM
SMILES: CN[C@@H](C)C(=O)N[C@H](C(=O)N1CCC[C@H]1c1nc(C(=O)c2ccc(F)cc2)cs1)C1CCCCC1 [LCL-161]

SMILES: CC(C)(C)OC(=O)N1Cc2ccccc2C[C@H]1c1nc(-c2nc(-c3nc(C(N)=O)cs3)cs2)cs1
- growth inhibition (GI) (HCT-116 [1]): inactive

SMILES: CCOC(=O)c1csc(-c2csc(-c3csc([C@H](N)Cc4ccccc4)n3)n2)n1
- growth inhibition (GI) (HCT-116 [1]): inactive

SMILES: CC(C)(C)OC(=O)N[C@H](Cc1ccccc1)c1nc(-c2nc(-c3nc(C(N)=O)cs3)cs2)cs1
- growth inhibition (GI) (HCT-116 [1]): inactive

- GI50 (HCT-116 [6]): 110 nM
- GI50 (HCT-116 [7]): 800 nM
SMILES: OCc1ccc(-c2ccc(-c3ccc(CO)s3)o2)s1
- Activity (HCT-116 [2]): Active
- Activity (HCT-116 [3]): inactive
- Activity (HCT-116 [4]): Active
- Activity (HCT-116 [5]): Active
- Activity (HCT-116 [8]): Active
- Activity (HCT-116 [9]): Active
- Activity (HCT-116 [10]): Active
- Activity (HCT-116 [11]): Active
